According to US6765020B2, “Drugs for prevention and treatment of diseases caused by abnormalities in cartilage tissues” (Suntory Limited, priority 1995, dated 2004):

Columns and labels:
[1] = tested on: carrageenan-induced edema; conditions: rat models; cited from earlier work
[2] = tested on: chondrocytes of the rabbit knee joint; test: Synthesis of type II collagen by primary culture of chondrocytes (density of 116 kD band on electrophoresis); type: cell-based; conditions: for Activity of recovering the synthesis of type II collagen inhibited by arachidonic acid: fatty acid added at 300 μM
Procedure: Using the primary culture of chondrocytes of the rabbit knee joint, the effects of mead acid on the synthesis of type II collagen was compared with that of other fatty acids, in particular arachidonic acid. The mead acid used was 99% 5,8,11-cis-eicosatrienoic acid ethyl ester highly purified in the same manner as in Example 1, and for arachidonic acid, oleic acid and linoleic acid, the commercially available 99% ethyl esters thereof were used. Chondrocytes were prepared from the knee joints of 4-week old Japan white rabbits in accordance with the method of Suzuki and Shimomura [Shimomurra, Y., Yoneda, T., Suzuki, F. Osteogenesis by chondrocyte from growth cartilage of rat rib., Calcif. Tissue Int., 19:179-187, 1975]. The chondrocytes were plated at 10,000 cells/well of the 96-well plate (Iwaki Glass K.K.) in (MEM medium (50 μg/ml vitamin C, 1 ng/ml b-FGF were added) supplemented with 10% bovine calf serum, and pre-incubated for two days (5% CO2, 37° C.). The fatty acids were suspended in 0.0625% HCO-60 prior to use. As the pre-treatment with the fatty acids, the plates were divided into three groups and added thereto the solvent (0.0625% HCO-60) (group A), mead acid (the final concentration, 300 μM) (group B), and arachidonic acid (the final concentration, 300 μM) (group C), and then incubated for about 5 days while the culture medium and the fatty acids were replaced with fresh ones every two days.
Subsequently, the culture medium was replaced with αMEM medium (1 μg/ml transferrin, 1 μM dexamethasone, 2 μg/ml insulin, 50 μg/ml vitamin C) and each fatty acid (mead acid, arachidonic acid, oleic acid, and linoleic acid) was added thereto to a final concentration of 300 μM followed by incubation for seven days to synthesize extracellular matrix. The culture medium and each of the fatty acids were replaced every 2 days with freshly prepared ones. Pepsin (2 mg/ml) acetate solution was added to the plate at 200 μl/well and treated at 37° C. for 24 hours. The residue was recovered from each well and was centrifuged at 15,000 rpm for 10 minutes to form a precipitate, which was then washed once with tris-EDTA buffer (pH 8.0) and dissolved in 100 μl of the SDS sample buffer.
The amount of type II collagen synthesized was determined by electrophoresing 1/10 volume of each sample solution on the multigel 4/20 (Daiichi Kagaku K.K.) and measuring the density of the 116 kD band after staining with Cooumassie Brilliant Blue.

[3] = tested on: rabbit model of osteoarthritis; test: Range of motion (ROM) of the right knee joint in rabbit models of osteoarthritis prepared using arthrodesis by cast; type: in vivo; conditions: 0.6 ml of 1 mg/ml solution/joint, right articular cavity twice per week for five weeks; solvent group 70%
Procedure: Models of osteoarthritis were prepared using arthrodesis by cast. The animals used were 12-week old male rabbits (Kbl: NZW, Kitayama Labesu K. K.). Under anesthesia by intramuscular administration of 2 mg/kg of xylazine hydrochloride (Selactal, Bayer A. G.) and 50 mg/kg of ketamine hydrochloride (Ketalar 50 for animals, Sankyo K.K.) (hereinafter referred to as “under anesthesia”), hair was cut off the right hind leg. Then after the region from the upper thigh to the toe was covered with the stockinette and cast pad (3M Medicine K.K.), the knee joint was fixed for three weeks at a stretched and bent position by casting tape (3M Medicine K.K.). […]
In accordance with Example 2, models of osteoarthritis of the knee were prepared using arthrodesis by cast and were divided into three groups of five animals per group so that the average weight and the range of motion of joints of each group became uniform. […] In accordance with Example 2, dosage samples were administered in the right articular cavity twice per week for five weeks and ROM of the joint of the right knee was measured.

[4] = group C pretreated with arachidonic acid 300 μM (FIG. 3, sample No. 11-15)

Row | Activity of recovering the synthesis of type II collagen inhibited by arachidonic acid [2, 4] | Structure (SMILES) | ROM at week five after the start of administration [3] [%] | other results
1 | – | CCCCCCCCC=CCC=CCC=CCCCC(=O)O [5,8,11-eicosatrienoic acid] | – | Anti-inflammatory effect on carrageenan-induced edema [1]: anti-inflammatory effect
2 | – | CCCCC/C=C\C/C=C\C/C=C\C/C=C\CCCC(=O)O [arachidonic acid] | – | Effect of addition of fatty acid on synthesis of type II collagen ([2]; 300 μM, seven days, group A pretreated with solvent (FIG. 3, sample No. 1-5)): inhibited synthesis of type II collagen; Inhibition of type II collagen synthesis in group C pretreated with arachidonic acid ([2]; 300 μM, group C pretreated with arachidonic acid 300 μM (FIG. 3, sample No. 11-15)): more conspicuous
3 | not observed | CCCCC/C=C\C/C=C\CCCCCCCC(=O)O [linoleic acid] | – | –
4 | not observed | CCCCCCCC/C=C\CCCCCCCC(=O)O [oleic acid] | – | –
5 | – | CCCCCCCCC=CC/C=C\CCCCC(=O)OCC [solution A, 6,9-cis-octadecadienoic acid ethyl ester] | 80.2 | –
6 | – | CCCCCCCCC=CC/C=C\CCCCCCC(=O)OCC [solution B, 8,11-cis-eicosadienoic acid ethyl ester] | 83.6 | –
